Test results from US10969382B2, “Systems and methods for assessing data collected from an electrically active cell culture” (Axion BioSystems, Inc., priority 2015, dated 2021).
“Also recorded” adds a separate entry of the source.

System: cardiomyocyte culture
Experiment: Global conduction velocity (GCV) of beat propagation measured on a microelectrode array
Format: cell-based
Settings: increasing flecainide concentration; FIG. 8C
Excerpt: example, within 30 ms). FIG. 6A is a representation of an array of electrodes 22 of an exemplary well of a MEA 20 having electrodes 22 spaced 200 μm from one another in the vertical and horizontal directions. It is to be appreciated that the number of electrodes 22 and the spacing shown in FIG. 6A are for example purposes only and greater or fewer electrodes 22 can be used and the spacing can also differ from what is shown. […] The beat timestamps, or arrival times, on the neighboring beat receiving electrodes can be used to generate a data array of delay times, as shown in Table 1. […] For the exemplary beat shown in Table 1, the beat starting electrode 30 is represented by the data point in column 1, row 2. The delay time (tdi) at each electrode 22 is the difference between the beat arrival time (ti) on that particular beat receiving electrode 22 and the beat start time, to, at the beat starting electrode 30. tdi=ti−t0 The velocity at which a beat propagates through the cellular network, or the conduction velocity, is a useful parameter for assessing a cardiomyocyte culture. However, the conduction velocity can vary depending upon the location within the cell culture, and thus it is another example of a parameter that is subject to spatial variability. […]

Compound: O=C(NCC1CCCCN1)c1cc(OCC(F)(F)F)ccc1OCC(F)(F)F (stereo not shown) [flecainide]
- conduction velocity using the GCV method: systematically reduced; also recorded: slows
